For the assay, the target named is human TYK2 (JH2domain-pseudokinase) (Homo sapiens (Human), UniProt P29597). Kind of assay: TYK2 JH2 Domain Binding Assay (KINOMEscan). Conditions: 11-point 3-fold dilution, top concentration 30,000 nM, duplicate; read-out: hTYK2_JH2_Binding (Kd; nM). The protocol: Binding constants for compounds of the present invention against the JH2 domain were determined by the following protocol for a KINOMEscan® assay (DiscoveRx). A fusion protein of a partial length construct of human TYK2 (JH2domain-pseudokinase) (amino acids G556 to D888 based on reference sequence NP_003322.3) and the DNA binding domain of NFkB was expressed in transiently transfected HEK293 cells. From these HEK 293 cells, extracts were prepared in M-PER extraction buffer (Pierce) in the presence of Protease Inhibitor Cocktail Complete (Roche) and Phosphatase Inhibitor Cocktail Set II (Merck) per manufacturers' instructions. The TYK2(JH2domain-pseudokinase) fusion protein was labeled with a chimeric double-stranded DNA tag containing the NFkB binding site (5′-[…]-3′) fused to an amplicon for qPCR readout, which was added directly to the expression extract (the final concentration of DNA-tag in the binding reaction is 0.1 nM).
human TYK2 (JH2domain-pseudokinase), sequence (P29597 556-888): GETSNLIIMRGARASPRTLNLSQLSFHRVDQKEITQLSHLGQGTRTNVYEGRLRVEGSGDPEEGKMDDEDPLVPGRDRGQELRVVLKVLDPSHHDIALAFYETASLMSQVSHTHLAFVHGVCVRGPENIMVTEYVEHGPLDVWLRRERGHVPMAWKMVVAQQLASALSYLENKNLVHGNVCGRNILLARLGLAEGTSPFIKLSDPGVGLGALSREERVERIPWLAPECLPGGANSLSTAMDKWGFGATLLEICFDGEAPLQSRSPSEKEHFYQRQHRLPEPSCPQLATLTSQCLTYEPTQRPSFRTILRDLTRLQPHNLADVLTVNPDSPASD
The liganded beads were blocked with excess biotin and washed with blocking buffer (SeaBlock (Pierce), 1% BSA, 0.05% Tween 20, 1 mM DTT) to remove unbound ligand and to reduce nonspecific binding.
Extracts were loaded with DNA-tag and diluted into the binding reaction in a two step process. First extracts were diluted 1:100 in 1× binding buffer (PBS/0.05% Tween 20/10 mM DTT/0.1% BSA/2 μg/ml sonicated salmon sperm DNA) containing 10 nM DNA-tag. This dilution was allowed to equilibrate at room temperature for 15 minutes and then subsequently diluted 1:100 in 1× binding buffer. […] Kds were determined using an 11-point 3-fold compound dilution series with three DMSO control points. […] The compounds were then diluted directly into the assays such that the final concentration of DMSO was 0.9%. All reactions performed in polypropylene 384-well plates. Each was a final volume of 0.02 mL. Assays were incubated with shaking for 1 hour at room temperature. Then the beads were pelleted and washed with wash buffer (lx PBS, 0.05% Tween 20) to remove displaced kinase and test compound. […] The qPCR protocol consisted of a 10 minute hot start at 95° C., followed by 35 cycles of 95° C. for 15 seconds, 60° C. for 1 minute.
Kds were determined using an 11-point 3-fold compound dilution series with three DMSO control points. […] The compounds were then diluted directly into the assays such that the final concentration of DMSO was 0.9%. The Kds were determined using a compound top concentration of 30,000 nM. Kd measurements were performed in duplicate.
Binding constants (Kds) were calculated with a standard dose-response curve using the Hill equation: […]
The Hill Slope was set to −1.
Broadly, the Kd is the equilibrium constant for the complex coming apart. Turning to `CNc1cc(Nc2cccn(-c3ncco3)c2=O)nc2c(C(=O)NC3CC[C@@H](OC)C3)cnn12` (mixture of isomers) [Compound I-71, N-((trans-1,3)-3-Methoxycyclopentyl)-7-(methylamino)-5-((1-(oxazol-2-yl)-2-oxo-1,2-dihydropyridin-3-yl)amino)pyrazolo[1,5-a]pyrimidine-3-carboxamide], the Kd lay in the range of 0.2 to 1 nM.

As to `CNc1cc(-c2cnc3n(CC(=O)N4CC5(COC5)C4)cccc2-3)nc2c(C(=O)NC3CC[C@@H]3OC)cnn12` (mixture of isomers) [Compound I-970], the dissociation constant (Kd) was below 0.2 nM.

With `CNc1cc(Nc2cccn([C@H]3CCC[C@@](C)(O)C3)c2=O)nc2c(C(=O)NC3CC3)cnn12` [Compound I-2, N-Cyclopropyl-5-((1-((1S,3R)-3-hydroxy-3-methylcyclohexyl)-2-oxo-1,2-dihydropyridin-3-yl)amino)-7-(methylamino)pyrazolo[1,5-a]pyrimidine-3-carboxamide], the Kd lay in the range of 0.2 to 1 nM.

For the compound `CNc1cc(Nc2cccn([C@H]3C[C@@H](OC)C3)c2=O)nc2c(C(=O)NC3CC3)cnn12` [Compound I-5, N-Cyclopropyl-5-((1-((1s,3s)-3-methoxycyclobutyl)-2-oxo-1,2-dihydropyridin-3-yl)amino)-7-(methylamino)pyrazolo[1,5-a]pyrimidine-3-carboxamide], the dissociation constant (Kd) was below 0.2 nM.

`CNc1cc(Nc2cccn([C@H]3C[C@@H](OC)C3)c2=O)nc2c(C(=O)N[C@@H]3C[C@@H]3F)cnn12` [Compound I-9, N-((1R,2S)-2-Fluorocyclopropyl)-5-((1-((1s,3S)-3-methoxycyclobutyl)-2-oxo-1,2-dihydropyridin-3-yl)amino)-7-(methylamino)pyrazolo[1,5-a]pyrimidine-3-carboxamide]: the Kd is below 0.2 nM.

Regarding `CNc1cc(Nc2cccn([C@H]3C[C@@H]3F)c2=O)nc2c(C(=O)N[C@@H]3CC[C@@H]3O)cnn12` [Compound I-13, 5-((1-((1S,2S)-2-Fluorocyclopropyl)-2-oxo-1,2-dihydropyridin-3-yl)amino)-N-((1R,2S)-2-hydroxycyclobutyl)-7-(methylamino)pyrazolo[1,5-a]pyrimidine-3-carboxamide], the Kd lay in the range of 0.2 to 1 nM.

Turning to `CNc1cc(-c2cn([C@H]3CCCOC3)c3ncccc23)nc2c(C(=O)N[C@H]3CC[C@H]3O)cnn12` [Compound I-15, N-((1S,2R)-2-Hydroxycyclobutyl)-7-(methylamino)-5-(1-((S)-tetrahydro-2H-pyran-3-yl)-1H-pyrrolo[2,3-b]pyridin-3-yl)pyrazolo[1,5-a]pyrimidine-3-carboxamide], the equilibrium dissociation constant (Kd) lay in the range of 0.2 to 1 nM.

In the case of `CNc1cc(Nc2cccn(C3CCOCC3)c2=O)nc2c(C(=O)N[C@@H]3C[C@H]3OC)cnn12` [Compound I-27, N-((1R,2R)-2-Methoxycyclopropyl)-7-(methylamino)-5-((2-oxo-1-(tetrahydro-2H-pyran-4-yl)-1,2-dihydropyridin-3-yl)amino)pyrazolo[1,5-a]pyrimidine-3-carboxamide], the Kd is below 0.2 nM.

With `CNc1cc(Nc2cccn(C3CCOCC3)c2=O)nc2c(C(=O)N[C@H]3C[C@@H]3OC)cnn12` [Compound I-28, N-((1S,2S)-2-Methoxycyclopropyl)-7-(methylamino)-5-((2-oxo-1-(tetrahydro-2H-pyran-4-yl)-1,2-dihydropyridin-3-yl)amino)pyrazol[1,5-a]pyrimidine-3-carboxamide], the Kd was below 0.2 nM.

Consider `CNc1cc(Nc2cccn(C(C)C)c2=O)nc2c(C(=O)N[C@@H]3C[C@H]3OC)cnn12` [Compound I-29, 5-((1-Isopropyl-2-oxo-1,2-dihydropyridin-3-yl)amino)-N-((1R,2R)-2-methoxycyclopropyl)-7-(methylamino)pyrazolo[1,5-a]pyrimidine-3-carboxamide], for which the Kd was in the range of 0.2 to 1 nM.

As to `CNc1cc(Nc2cccn(C(C)C)c2=O)nc2c(C(=O)N[C@H]3C[C@@H]3OC)cnn12` [Compound I-30, 5-((1-Isopropyl-2-oxo-1,2-dihydropyridin-3-yl)amino)-N-((1S,2S)-2-methoxycyclopropyl)-7-(methylamino)pyrazolo[1,5-a]pyrimidine-3-carboxamide], the dissociation constant Kd was in the range of 0.2 to 1 nM.

In the case of `CNc1cc(Nc2cccn(-c3ccc(C)nc3)c2=O)nc2c(C(=O)N[C@H]3C[C@@H]3OC)cnn12` [Compound I-35, N-((1S,2S)-2-Methoxycyclopropyl)-5-((6′-methyl-2-oxo-2H-[1,3′-bipyridin]-3-yl)amino)-7-(methylamino)pyrazolo[1,5-a]pyrimidine-3-carboxamide], the Kd was below 0.2 nM.

For the compound `CNc1cc(Nc2cccn([C@@H]3C[C@H]3F)c2=O)nc2c(C(=O)N[C@@H]3CC[C@H](O)C3)cnn12` [Compound I-42, 5-((1-((1R,2R)-2-Fluorocyclopropyl)-2-oxo-1,2-dihydropyridin-3-yl)amino)-N-((1R,3S)-3-hydroxycyclopentyl)-7-(methylamino)pyrazolo[1,5-a]pyrimidine-3-carboxamide], the Kd was in the range of 0.2 to 1 nM.

As for `CNc1cc(Nc2cccn([C@@H]3C[C@H]3F)c2=O)nc2c(C(=O)N[C@H]3CC[C@@H](O)C3)cnn12` [Compound I-43, 5-((1-((1R,2R)-2-Fluorocyclopropyl)-2-oxo-1,2-dihydropyridin-3-yl)amino)-N-((1S,3R)-3-hydroxycyclopentyl)-7-(methylamino)pyrazolo[1,5-a]pyrimidine-3-carboxamide], the Kd is 0.2 to 1 nM.

Consider `CNc1cc(Nc2cccn([C@H]3C[C@@H]3F)c2=O)nc2c(C(=O)N[C@@H]3CC[C@H](O)C3)cnn12` [Compound I-44, 5-((1-((1S,2S)-2-Fluorocyclopropyl)-2-oxo-1,2-dihydropyridin-3-yl)amino)-N-((1R,3S)-3-hydroxycyclopentyl)-7-(methylamino)pyrazolo[1,5-a]pyrimidine-3-carboxamide], for which the dissociation constant Kd lay within 0.2 to 1 nM.

For `CNc1cc(Nc2cccn([C@H]3C[C@@H]3F)c2=O)nc2c(C(=O)N[C@H]3CC[C@@H](O)C3)cnn12` [Compound I-45, 5-((1-((1S,2S)-2-Fluorocyclopropyl)-2-oxo-1,2-dihydropyridin-3-yl)amino)-N-((1S,3R)-3-hydroxycyclopentyl)-7-(methylamino)pyrazolo[1,5-a]pyrimidine-3-carboxamide], the dissociation constant (Kd) lay within 0.2 to 1 nM.

Consider `CNc1cc(Nc2cccn([C@H]3C[C@@H]3F)c2=O)nc2c(C(=O)N[C@@H]3CC[C@H]3OC)cnn12` [Compound I-50, 5-((1-((1S,2S)-2-Fluorocyclopropyl)-2-oxo-1,2-dihydropyridin-3-yl)amino)-N-((1R,2R)-2-methoxycyclobutyl)-7-(methylamino)pyrazolo[1,5-a]pyrimidine-3-carboxamide], for which the Kd is 1 to 10 nM.

In the case of `CNc1cc(Nc2cccn([C@@H]3C[C@H]3F)c2=O)nc2c(C(=O)N[C@H]3CC[C@@H]3OC)cnn12` [Compound I-52, 5-((1-((1R,2R)-2-Fluorocyclopropyl)-2-oxo-1,2-dihydropyridin-3-yl)amino)-N-((1S,2S)-2-methoxycyclobutyl)-7-(methylamino)pyrazolo[1,5-a]pyrimidine-3-carboxamide], the Kd is 0.2 to 1 nM.

`CNc1cc(-c2cn(CCN3CCOCC3)c3ncccc23)nc2c(C(=O)N[C@H]3CC[C@@H]3OC)cnn12` [Compound I-54, N-((1S,2S)-2-Methoxycyclobutyl)-7-(methylamino)-5-(1-(2-morpholinoethyl)-1H-pyrrolo[2,3-b]pyridin-3-yl)pyrazolo[1,5-a]pyrimidine-3-carboxamide]: the Kd was below 0.2 nM.

As to `CNc1cc(-c2cn(CCN3CCOCC3)c3ncccc23)nc2c(C(=O)N[C@@H]3CC[C@H]3OC)cnn12` [Compound I-55, N-((1R,2R)-2-Methoxycyclobutyl)-7-(methylamino)-5-(1-(2-morpholinoethyl)-1H-pyrrolo[2,3-b]pyridin-3-yl)pyrazolo[1,5-a]pyrimidine-3-carboxamide], the equilibrium dissociation constant (Kd) is 0.2 to 1 nM.

Regarding `CNc1cc(-c2cn([C@H]3CCCOC3)c3ncccc23)nc2c(C(=O)N[C@H]3COC[C@H]3O)cnn12` [Compound I-60, N-((3S,4S)-4-Hydroxytetrahydrofuran-3-yl)-7-(methylamino)-5-(1-((S)-tetrahydro-2H-pyran-3-yl)-1H-pyrrolo[2,3-b]pyridin-3-yl)pyrazolo[1,5-a]pyrimidine-3-carboxamide], the dissociation constant (Kd) is below 0.2 nM.

The record behind these values is patent publication US11414431B2, “Substituted pyrazolo[1,5-a]pyrimidines as TYK2 inhibitors” (Nimbus Lakshmi, Inc., priority 2018, dated 2022).
